One experiment has as its target T1, MEK1 (Homo sapiens, UniProt Q02750).
T1 construct: purchased SignalChem M02-14H
Put plainly: MEK1 kinase cascade assay (ADP-Glo), inhibition of MEK1 kinase activity. The format is biochemical. In a few lines: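 Cascade format with ADP-Glo read-out: BRAF (25 nM) and compound, 1% DMSO, 20 mins at 25° C, then MEK1 6.25 nM, ERK1 0.5 μM, ATP 1 mM for 1 hr at 25° C in HEPES pH 7.5 buffer with MgCl2, CHAPS and DTT. Percent inhibition, scaled between DMSO and 1 μM Trametinib, was fit by 4-parameter logistic to give IC50 (2 replicate wells).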
On the technique in general: ADP-Glo turns the ADP formed in a reaction into a luminescent signal.

The subject of another experiment is BRAF-MEK1. Put plainly: BRAF-MEK TR-FRET assay, stabilization of MEK1 and BRAF interaction. The class given is binding. Conditions: read-out: BRAF-MEK TR-FRET Assay (EC50, fold stabilization). In a few lines:
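Read-out is fold stabilization (treated FRET ratio/DMSO, Em 665/620 nm), fit 4-parameter for EC50 from 2 replicates. Compounds sat with 4 nM GST-BRAF and 10 nM in-house His-MEK1 1 h at 25° C (Tris pH 7.5, MgCl2, 100 μM ATP), then detection antibodies 1 h.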
(In general: TR-FRET usually uses a lanthanide donor and a delayed reading to cut background.)

The test system of the next experiment is p-ERK1/2 in HCT116 cells. The experiment in a line: AlphaLISA p-ERK assay, cellular inhibition of ERK phosphorylation in HCT116 cells. The class given is cell-based. Particulars: Homo sapiens, HCT-116, 2 hours treatment, PMA stimulation 30 mins. The procedure:
Cell culture: HCTI 16, HT-29, and NCI-H292 cells were acquired from American Type Culture Collection (ATCC). HCT116 and HT-29 cells were maintained in ATCC-formulated McCoy's 5a Medium Modified supplemented with 10% fetal bovine serum, NCI-H292 cells were cultured in ATCC formulated RPMI-1640 supplemented with 10% fetal bovine serum. All cells were maintained at 37° C., 5% CO2.
Efficacy of exemplary compounds in cellular inhibition of ERK phosphorylation: Phosphorylation status of ERK1/2 (p-ERK) was used as a readout for inhibition of BRAF-MEK pathway. p-ERK was detected using an immunoassay for quantitative detection of phospho-ERK 1/2 (phosphorylated on Thr202/Tyr204 in ERK1, or Thr185/Tyr187 in ERK2), such as the AlphaLISA® SureFire® Ultra™ p-ERK1/2 (Thr202/Tyr204) kit (Perkin Elmer). HCT116 cells were plated at 10,000 cells per well in 384-well TC-treated plates (Coming). Cells were plated for 24 hours, the medium was then aspirated and cells were treated with vehicle (DMSO) or test compounds (0.1% DMSO in final volume) prepared in serum free, phenol red free medium for 2 hours. Following treatment, cells were stimulated with PMA (1.25 μM/well) for 30 mins after which the medium was aspirated, and the cells were lysed for 10 mins with 1× lysis buffer supplemented with Halt Protease and Phosphatase Inhibitor Cocktail (Thermo Fisher). The lysate was transferred to a 384 well Alpha-plate (PerkinElmer) and incubated for 1 hour with acceptor bead mix followed by 1 hour incubation with donor bead mix. After incubation, the plate was read on a Cytation5 microplate reader (Agilent). % inhibition as a function of compound concentration from 3 replicate wells was fit with a 4-parameter logistic curve using GraphPad Prism or CDD Vault to derive IC50 values.
In this table, for the BRAF ADP Glo kinase assay, “A” indicates IC50 of less than 5 nM; “B” indicates IC50 of between 5 nM to 50 nM; and “C” indicates IC50 of between 50 nM to 500 nM. “D” indicates IC50 of greater than 500 nM. For the BRAF-MEK TR-FRET assay, “A” indicates EC50 of less than 50 nM; “B” indicates EC50 of between 50 nM to 200 nM; and “C” indicates EC50 of between 200 nM to 1 μM. “D′” indicates EC50 of greater than 1 μM. For the AlphaLisa P-ERK assay, “A” indicates IC50 of less than 1 nM; “B” indicates IC50 of between 1 nM to 10 nM; and “C” indicates IC50 of between 10 nM to 100 nM. “D” indicates IC50 of greater than 100 nM. For the cell viability assay, “A” indicates IC50 of less than 1 nM; “B” indicates IC50 of between 1 nM to 10 nM; and “C” indicates IC50 of between 10 nM to 100 nM. “D” indicates IC50 of greater than 100 nM.
Background: In Alpha technology, singlet oxygen from a donor bead excites a nearby acceptor bead.

For another experiment, the system named is NCI-H292 cells. Put plainly: Cell viability assay (CellTiter-Glo), NCI-H292. The format is cell-based. Particulars: Homo sapiens, 72 hrs, read-out: Cell Viability Assay: IC50 Determination NCI-H292. A digest of the protocol:
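Cells seeded at 2,000 per well in RPMI-1640 with 10% FBS, treated 24 h later with compound (0.1% DMSO) for 72 h. Viability read by CellTiter-Glo luminescence; IC50 from 4-parameter logistic fit of % inhibition over 3 replicate wells.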

The mark [1] stands for this setting: 25 nM BRAF, 6.25 nM MEK1, 0.5 μM ERK, 1 mM ATP, 20 min preincubation, 1 hr at 25° C., read-out: BRAF ADP Glo kinase assay V3 (IC50).
The mark [2] stands for this setting: 4 nM BRAF, 10 nM MEK, 100 μM ATP, 1 hr at 25° C.

Read-outs that look alike come from different tables or passages of the source. A value given as a limit tells only on which side of the number the result lay.

T1 sequence (Q02750 whole entry): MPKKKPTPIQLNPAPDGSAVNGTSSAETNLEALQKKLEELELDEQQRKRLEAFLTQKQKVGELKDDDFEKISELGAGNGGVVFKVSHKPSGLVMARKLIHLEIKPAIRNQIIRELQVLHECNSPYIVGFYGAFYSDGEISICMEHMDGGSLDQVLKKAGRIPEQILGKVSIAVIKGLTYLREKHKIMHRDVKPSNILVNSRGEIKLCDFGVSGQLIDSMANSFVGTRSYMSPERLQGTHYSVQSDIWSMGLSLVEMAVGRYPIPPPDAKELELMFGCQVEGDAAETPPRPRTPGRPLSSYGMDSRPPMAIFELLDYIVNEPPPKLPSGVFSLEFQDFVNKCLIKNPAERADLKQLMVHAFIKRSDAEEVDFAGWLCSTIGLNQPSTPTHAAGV
T1 sequence (P15056 445-723 partner limits assumed): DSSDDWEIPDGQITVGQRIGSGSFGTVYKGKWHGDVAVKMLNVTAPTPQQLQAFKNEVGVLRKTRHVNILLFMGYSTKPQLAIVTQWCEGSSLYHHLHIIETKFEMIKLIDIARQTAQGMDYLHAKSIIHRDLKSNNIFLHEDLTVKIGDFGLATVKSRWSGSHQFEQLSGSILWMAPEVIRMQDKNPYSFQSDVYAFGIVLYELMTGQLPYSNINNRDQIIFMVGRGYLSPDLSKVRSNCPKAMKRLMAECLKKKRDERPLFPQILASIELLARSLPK

`CNS(=O)(=O)Nc1cccc(CN2C(=O)Oc3cc(Oc4cccnn4)cc(F)c3C23COC3)c1F` [Compound 63]: the IC50 on MEK1 (setting [1]) is 5 to 50 nM; in the experiment with p-ERK1/2 in HCT116 cells, 1 to 10 nM; in the experiment on NCI-H292 cells, 1 to 10 nM. The EC50 with BRAF-MEK1 (setting [2]) lay in the range of 50 to 200 nM.
Regarding `CNS(=O)(=O)Nc1cccc(CN2C(=O)Oc3c(ccc(Oc4cccnn4)c3F)[C@@H]2C)c1F` (single isomer, unassigned) [Compound 35], the IC50 was under 5 nM on MEK1 (setting [1]), 10 to 100 nM in the experiment on p-ERK1/2 in HCT116 cells and 10 to 100 nM in the experiment on NCI-H292 cells. Besides, the EC50 in the experiment with BRAF-MEK1 (setting [2]) is 50 to 200 nM.
`[2H]C1([2H])c2ccc(Oc3cccnn3)cc2OC(=O)N1Cc1cccc(NS(=O)(=O)NC)c1F` [Compound 52, 3-{[2-fluoro-3-(methylaminosulfonylamino)phenyl]methyl}-7-(3-pyridazinyloxy)(4,4-^2H2)-3,4-dihydro-2H-1,3-benzoxazin-2-one]: the IC50 lay in the range of 5 to 50 nM at MEK1 (setting [1]), 1 to 10 nM in the experiment with p-ERK1/2 in HCT116 cells and 1 to 10 nM with NCI-H292 cells. In addition, the EC50 in the experiment on BRAF-MEK1 (setting [2]) lay within 50 to 200 nM.
For `CNS(=O)(=O)Nc1nccc(CN2C(=O)Oc3cc(Oc4ncco4)ccc3C23COC3)c1F` [Compound 68, 3-({3-fluoro-2-[(methylsulfamoyl)amino]pyridin-4-yl}methyl)-7-(1,3-oxazol-2-yloxy)-2,3-dihydrospiro[1,3-benzoxazine-4,3′-oxetan]-2-one], the IC50 on MEK1 (setting [1]) lay within 5 to 50 nM; in the experiment on p-ERK1/2 in HCT116 cells, 10 to 100 nM; in the experiment with NCI-H292 cells it was 1 to 10 nM. The EC50 with BRAF-MEK1 (setting [2]) is 50 to 200 nM.
On the same counts, the results for `CNS(=O)(=O)Nc1cccc(CN2C(=O)Oc3c(ccc(Oc4cccnn4)c3F)C23COC3)c1F` [Compound 42] are under 5 nM, 1 to 10 nM, 1 to 10 nM and 50 to 200 nM.
In the case of `CNS(=O)(=O)Nc1cccc(CN2Cc3cc(Cl)c(OC(=O)N(C)C)cc3OC2=O)c1F` [Compound 149, 6-chloro-3-(2-fluoro-3-((N-methylsulfamoyl)amino)benzyl)-2-oxo-3,4-dihydro-2H-benzo[e][1,3]oxazin-7-yl dimethylcarbamate], the figures for the 50% inhibitory concentration (IC50) at MEK1 (BRAF ADP Glo kinase assay V3 (IC50)), with p-ERK1/2 in HCT116 cells and with NCI-H292 cells were under 5 nM, 1 to 10 nM and 1 to 10 nM, respectively. Moreover, the EC50 in the experiment on BRAF-MEK1 (60 min) was 50 to 200 nM.

The IC50 is the point on the concentration scale where inhibition reaches its midpoint.

These data come from US20260297105A1, “RAF-MEK PROTEIN COMPLEX MODULATORS AND METHODS OF USE THEREOF” (GANDEEVA THERAPEUTICS, INC., priority 2023, published 2026).
